Reference: patent US4454126A, “Phosphoramide derivatives and medicines containing the same” (priority 1981, dated 1984)

Legend:
Jack bean urease = molecular target: T1, Jack bean urease (Canavalia ensiformis, UniProt P07374); experiment: Urease inhibition effects - Jack bean urease; assay type: biochemical, Jack beans; details: read-out: 50% Urease inhibition conc. I50
T1 construct: Urease extracted from Jack beans and then purified; from tissue; host or cells: Jack beans
Description: (§1) Urease extracted from Jack beans and then purified and urease produced by Proteus mirabilis were used. The molar concentration of the test compound that inhibited 50% of the urease present was determined by the method of Kobashi et al, Biochim. Biophys. Acta, 227, 429-441 (1971), and the method of Okuda et al, Saishin Igaku (The Latest Medical Science) 21(3), 622-627 (1966).

[1] = molecular target: T2, urease produced by Proteus mirabilis (Proteus mirabilis, UniProt P17086); experiment: Urease inhibition effects - Proteus mirabilis urease, intact cell; assay type: cell-based; details: read-out: 50% Urease inhibition conc. I50
T2 construct: intact Proteus mirabilis cells and cell-free preparation
Description: as §1

[2] = molecular target: T2, urease produced by Proteus mirabilis; experiment: Urease inhibition effects - Proteus mirabilis urease, cell free; assay type: biochemical; details: read-out: 50% Urease inhibition conc. I50
Description: as §1

[3] = Rate of migration into urine; details: rat, in vivo, po; 50 mg/kg perorally, S.D. rats, urine excreted for 24 hrs; read-out: Rate of migration into urine, Average ± S.E.
Description: 50 mg/kg of a test compound was administered perorally to S.D. rats weighing around 200 g. The urease-inhibition capacity of urine excreted for 24 hrs. thereafter was measured. The rate of migration into urine of each test compound was determined by the method of Kobashi et al, Yakugaku Zasshi 93(12), 1564-1572 (1973) and J. Biochim. 83, 287-293 (1973).

Proteus mirabilis = experiment: Inhibition of the formation of vesical calculi in rats infected with Proteus mirabilis; assay type: in vivo, Female S.D. rats; details: peroral, five days from four days after inoculation, none: 34.5 ± 2.6 mg
Text: Female S.D. rats weighing about 200 g were inoculated with Proteus mirabilis in their bladders to cause infection. Four days after the inoculation peroral administration of a test compound was begun and the administration was continued for five days. The calculi formed in the bladder in each rat were weighed.

Acute toxicity = assay type: in vivo, S.D. rats; details: peroral; for LD50: rat, in vivo, po, in 0.5% carboxymethylcellulose
Text: Acute toxicities of test compounds were examined by the peroral administration of the test compounds, suspended in 0.5% carboxymethylcellulose, to male and female S.D. rats (8 weeks old).

T1 sequence (P07374 whole entry, looked up): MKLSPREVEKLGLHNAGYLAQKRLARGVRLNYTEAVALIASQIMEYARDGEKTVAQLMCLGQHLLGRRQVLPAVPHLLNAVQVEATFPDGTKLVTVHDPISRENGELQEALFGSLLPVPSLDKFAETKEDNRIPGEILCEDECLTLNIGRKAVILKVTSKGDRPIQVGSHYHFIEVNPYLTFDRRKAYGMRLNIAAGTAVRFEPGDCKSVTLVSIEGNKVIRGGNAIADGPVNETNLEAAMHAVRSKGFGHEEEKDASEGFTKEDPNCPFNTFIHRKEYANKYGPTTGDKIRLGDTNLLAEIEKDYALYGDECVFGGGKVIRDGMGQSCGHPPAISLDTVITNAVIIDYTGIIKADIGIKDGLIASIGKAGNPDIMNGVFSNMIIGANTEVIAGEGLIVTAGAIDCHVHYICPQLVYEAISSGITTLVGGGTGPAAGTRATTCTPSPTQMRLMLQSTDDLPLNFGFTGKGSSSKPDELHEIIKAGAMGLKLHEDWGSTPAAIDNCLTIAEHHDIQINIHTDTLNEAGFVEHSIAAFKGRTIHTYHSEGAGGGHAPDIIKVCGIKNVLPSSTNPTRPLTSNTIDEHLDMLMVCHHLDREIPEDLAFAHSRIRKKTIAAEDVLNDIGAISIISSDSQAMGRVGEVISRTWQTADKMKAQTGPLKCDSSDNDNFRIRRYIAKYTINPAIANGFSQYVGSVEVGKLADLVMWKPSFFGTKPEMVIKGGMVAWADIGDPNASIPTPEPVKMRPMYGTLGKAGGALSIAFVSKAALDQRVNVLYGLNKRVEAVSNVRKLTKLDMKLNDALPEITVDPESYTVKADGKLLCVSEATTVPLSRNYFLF
T2 sequence (P17086 whole entry): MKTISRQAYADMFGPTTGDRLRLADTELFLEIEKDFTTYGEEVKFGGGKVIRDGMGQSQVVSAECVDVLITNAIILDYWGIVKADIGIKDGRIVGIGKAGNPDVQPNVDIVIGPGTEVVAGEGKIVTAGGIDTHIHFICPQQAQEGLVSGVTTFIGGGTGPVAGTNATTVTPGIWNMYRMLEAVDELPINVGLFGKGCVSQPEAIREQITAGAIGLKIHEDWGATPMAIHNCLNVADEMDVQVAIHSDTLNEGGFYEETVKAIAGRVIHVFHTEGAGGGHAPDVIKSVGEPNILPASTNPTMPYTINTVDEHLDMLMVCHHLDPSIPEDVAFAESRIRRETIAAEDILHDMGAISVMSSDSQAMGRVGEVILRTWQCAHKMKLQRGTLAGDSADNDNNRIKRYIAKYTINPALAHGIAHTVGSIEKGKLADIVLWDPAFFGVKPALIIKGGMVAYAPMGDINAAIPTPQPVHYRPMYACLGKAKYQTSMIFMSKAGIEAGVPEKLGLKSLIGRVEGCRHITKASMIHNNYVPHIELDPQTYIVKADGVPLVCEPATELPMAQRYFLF
T2 sequence (P17088 whole entry, further chain): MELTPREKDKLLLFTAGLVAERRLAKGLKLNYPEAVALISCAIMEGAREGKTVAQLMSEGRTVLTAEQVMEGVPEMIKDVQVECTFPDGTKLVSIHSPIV
T2 sequence (P17087 whole entry, further chain): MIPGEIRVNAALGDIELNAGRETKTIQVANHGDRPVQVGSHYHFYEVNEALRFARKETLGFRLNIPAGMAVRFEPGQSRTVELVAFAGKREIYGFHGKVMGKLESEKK

CC(C)CCCC(C)CC(=O)NP(N)(N)=O (stereo not shown) [Compound D, N-(diaminophosphinyl)-3,7-dimethyloctanamide]
IC50 (Jack bean urease): 870 nM | IC50 [1]: 14 nM

CC(C)=CC(=O)NP(N)(N)=O [Compound A, N-(diaminophosphinyl)-3-methyl-2-butenamide]
IC50 (Jack bean urease): 630 nM | IC50 [1]: 18 nM | IC50 [2]: 16 nM | dose excreted at 24 h [3]: 29.6 ± 2.1% | Weight of calculi (Average ± S.E.) (Proteus mirabilis; 12.5 mg/kg per day): 10.7 ± 3.9 mg | Weight of calculi (Average ± S.E.) (Proteus mirabilis; 50 mg/kg per day): 10.9 ± 2.8 mg | Acute toxicity, in words (Acute toxicity; S.D. rats): only a very low toxitity | LD50 (Acute toxicity; female S.D. rats (8 weeks old)): > 4240 mg/kg | LD50 (Acute toxicity; male S.D. rats (8 weeks old)): > 6000 mg/kg

CC(C)CC(=O)NP(N)(N)=O [Compound C, N-(diaminophosphinyl)-3-methylbutanamide]
IC50 (Jack bean urease): 1600 nM | IC50 [1]: 68 nM | IC50 [2]: 61 nM

CC(=CC(=O)NP(N)(N)=O)CCCC(C)C [Compound B, N-(diaminophosphinyl)-3,7-dimethyl-2-octenamide]
IC50 (Jack bean urease): 5200 nM | IC50 [1]: 15 nM | IC50 [2]: 16 nM

NP(N)(=O)NC(=O)c1ccccc1 [Control Compound, N-(diaminophosphinyl)benzamide, reference compound]
IC50 (Jack bean urease): 600 nM | IC50 [1]: 18 nM | IC50 [2]: 13 nM | dose excreted at 24 h [3]: 21 ± 2.7% | Weight of calculi (Average ± S.E.) (Proteus mirabilis; 12.5 mg/kg per day): 22.5 ± 4.0 mg
